Results from the METLIN SMRT retention time set (Domingo-Almenara et al. 2019).

Experiment: gradient 5% acetonitrile 3 min, to 50% in 2 min, to 85% in 15 min, held 3 min, 100 µL/min
Conditions: column: Zorbax Extend-C18 2.1 x 50 mm; eluents: water / acetonitrile, 0.1% formic acid
How it was run: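 Each retention time is based on an adduct peak selected computationally and verified by manual inspection. Measurements used HPLC–quadrupole time-of-flight mass spectrometry in positive and negative ionization mode on mixtures of ~100 pure standards. Chromatography ran on a Zorbax Extend-C18 column (2.1 × 50 mm, 1.8 μm) at 100 μL/min with water and acetonitrile, each containing 0.1% formic acid, and dead and dwell volumes of 40 μL and 900 μL.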

RP-LC retention time [s]	SMILES
688	CCn1cnc2ccc(C(=O)NC3CCCC3)cc2c1=O
650	O=C(c1ccc2nnc(-c3ccc(Cl)cc3)n2c1)N1CCN(c2ccccn2)CC1
892	COc1ccc(Br)cc1CNC(=O)CN1C(=O)CCCc2ccccc21
578	O=C(NCc1ccco1)C1CCN(c2cncnc2N2CCOCC2)CC1
856	COC(=O)C1=CN(c2ccc(OC)c(Cl)c2)c2ccccc2S1(=O)=O
565	CCN(CC)CCNS(=O)(=O)c1cc(-c2[nH]ncc2C(=O)N2CCCC2)oc1C
899	CC(C)NC(=O)c1ccc(OCC2CCCN(C(=O)c3cccc(Cl)c3)C2)cc1 (centres undefined)
639	CCc1ccc(NC(=O)Cn2c(N)nc(C)cc2=O)cc1
657	COCC(C)(O)CNC(=O)c1cc(Cl)ccc1Cl (centres undefined)
765	Cc1nn(C)cc1CN(C)C(=O)CC(c1ccccc1)c1ccccc1
962	CC(C)C(NC(=O)C1CCCN(S(=O)(=O)Cc2ccccc2)C1)C(C)C (centres undefined)
672	CCSc1nnc(NC(=O)C2CCCN(c3ccc(-c4ccco4)nn3)C2)s1 (centres undefined)
878	CCCCC(=O)N1CCCC(C)C1 (centres undefined)
591	COc1cccc(CNC(=O)COc2ccc(NC(=O)C3CC3)cn2)c1OC
1040	CCOc1ccc(-c2noc(C3CC(=O)N(c4cc(Cl)ccc4OC)C3)n2)cc1 (centres undefined)
979	CCS(=O)(=O)N1CC(=O)N(c2ccc(C)cc2)C(C)(C(=O)NC2CCCCCCC2)C1 (centres undefined)
750	COc1ccccc1N1CCN(c2ncc(C(=O)O)c(C)n2)CC1
648	CC(NC(=O)C1CCN(c2cncnc2N2CCCC2)CC1)c1ccc(F)cc1 (centres undefined)
817	CC1CCCN(c2ccc(-c3csc(S(=O)(=O)N4CCCCC4)c3)nn2)C1 (centres undefined)
586	CCc1cc(N2CCN(C(=O)c3ccc(N(C)C)cc3)CC2)nc2nncn12
610	CNC(=O)CN1CCC(Oc2cc3c(Nc4cccc(Cl)c4F)ncnc3cc2OC)CC1
713	CCCC(NC(=O)CCc1ccc(OC)cc1)C(=O)Nc1nc2ccccc2[nH]1 (centres undefined)

RP-LC retention time [s]	SMILES
811	COc1cc(NC(=O)C2CCN(S(=O)(=O)c3ccc4c(c3)NC(=O)C(C)O4)CC2)cc(OC)c1 (centres undefined)
782	O=C(NCCc1csc(-c2cccs2)n1)C1CCN(C(=O)C2CCCC2)CC1
657	CCC(CN1CCOCC1)NC(=O)c1c2c(cn(-c3ccc(F)cc3)c1=O)C(=O)CC(C)(C)C2 (centres undefined)
803	CCOc1ccccc1CNC(=O)C1CCN(C(=O)c2ncn3c2COC(c2ccccc2)C3)CC1 (centres undefined)
655	Cn1ncc2c3ccccc3n(CCCC(=O)NC3CCN(Cc4ccccc4)CC3)c2c1=O
631	Brc1cncc(-c2nc(-c3ccc4c(c3)ncn4CCN3CCCC3)no2)c1
1120	CCn1c(=O)c2ccccc2n(Cc2nc(-c3ccc(C(F)(F)F)cc3)no2)c1=O
800	COc1ccc(-c2nc(NC(=O)c3cccnc3)sc2C)cc1
1260	O=C(NCc1ccc(Cl)cc1)c1c(O)c2cccnc2n(-c2ccccc2)c1=O
721	COc1ccc(C(=O)Oc2ccc[nH]c2=O)cc1
1020	Cc1ccc(CNC(=O)C2(C)CCCN(C(=O)Nc3ccccc3Br)C2)cc1 (centres undefined)
936	COc1cccc(NC(=O)CCC2CCN(S(=O)(=O)c3ccccc3)CC2)c1
760	O=C1NC2(CCN(C(=O)c3cc(F)cc(F)c3)CC2)Nc2c(Cl)cccc21
996	Cc1ccc(NC(=O)C2CCCN(c3nc4ccsc4c(=O)n3-c3ccc(C)cc3)C2)cc1 (centres undefined)
1060	Cc1cc(C)c(NC(=O)COc2cc(C(F)(F)F)c3c(C)nn(C)c3n2)c(C)c1
834	O=C(Cn1c(=O)c2cccn2c2ccc(F)cc21)NCCc1c[nH]c2ccccc12
644	CC(C)(C)NC(=O)N1CCC(CNC(=O)c2ccccn2)CC1
1200	O=C(NC1CCCCCC1)C1CCN(c2nc3ccccc3nc2C(F)(F)F)CC1
754	COc1ccc(N2CCN(C(=O)CC(C)S(=O)(=O)c3ccc4c(c3)CCN4C(C)=O)CC2)cc1 (centres undefined)
797	NC(=O)CSc1nc(-c2ccccc2)c(NC(=O)c2cc3ccccc3o2)s1
736	CC(C)NC(=O)c1ccc(-c2ccsc2)nc1
665	CCCN1CCN(C(=O)C2CCN(S(=O)(=O)c3ccc4c(c3)sc(=O)n4C(C)C)CC2)CC1

RP-LC retention time [s]	SMILES
856	COc1ccc(-n2ccc(=O)c(-c3nc(-c4ccccc4)no3)n2)cc1
1110	Cc1sc(-c2cc(C(F)(F)F)[nH]n2)cc1S(=O)(=O)N1CCN(c2ccc(F)cc2)CC1
1130	Cc1cccc(Sc2nccnc2N2CCC(C(=O)N3CCCCCC3)CC2)c1
746	COc1cc(-c2nc3ncccn3c2NCc2ccc(C)cc2)cc(OC)c1OC
829	Cn1cc(-c2cc3n(n2)CCC(=O)N3CC(=O)Nc2cccc(F)c2)c2ccccc21
902	Cc1cc2nc(C)c(=O)n(CCC(=O)NCCc3c[nH]c4ccc(Cl)cc34)c2cc1C
844	O=C(CCc1nc2ccccc2n(CC(=O)NC2CCCCC2)c1=O)NC1CCCCC1
833	Cc1oc(-c2[nH]ncc2C(=O)N(C)C)cc1S(=O)(=O)NCc1ccccn1
553	CCN1CCN(CCCNC(=O)C(C)n2c3ccccc3c3cnn(C)c(=O)c32)CC1 (centres undefined)
888	Cc1nc(N2CCN(c3ccc(F)cc3)CC2)ncc1C(=O)O
851	COc1ccccc1C(=O)N1CCN(c2ccc(-c3nc(C)c(C)s3)cn2)CC1
887	CCC(C)NC(=O)C1(c2ccc(NS(=O)(=O)CC)cc2)CCCCC1 (centres undefined)
655	CCN(Cc1ccccc1)C(=O)CN1C(=O)C(O)(c2cccc(F)c2)c2ccccc21 (centres undefined)
588	CCCN(CCC)C(=O)c1cc(NC(=O)CC)cnc1N1CCNCC1
609	CCOc1ccc(NC(=O)c2cnc(N3CCN(CC)CC3)nc2N)cc1
621	CCCn1cc(CCNC(=O)C2CC2)c2cccnc21
596	Cc1nn2c(CNS(=O)(=O)c3c(C)nn(C)c3C)c(C)nc2s1
664	O=S(=O)(c1cccc2cccnc12)N1CC[C@@H]2COCCN(Cc3ccccc3)[C@@H]2C1
1090	CCc1cc(C(=O)Nc2cc(F)ccc2C)nc2ccnn12
737	O=C(Cn1nc(N2CCOCC2)c2ccccc2c1=O)Nc1ccc2c(c1)OCCO2
739	C=C(C)Cn1c(C(C)(C)C)cn2c3c(=O)n(C)c(=O)n(C)c3nc12
1020	Cc1cccc(N2CCN(S(=O)(=O)c3cc(-c4nnc(C5CC5)o4)co3)CC2)c1

RP-LC retention time [s]	SMILES
971	O=S(=O)(c1ccc(-c2nnc(C3CC3)o2)o1)N1CCN(c2ccccc2)CC1
771	COC(=O)c1ccc(NC(=O)N(C)c2ccccc2)cc1
1120	O=C(NCc1ccc2c(c1)OCO2)c1c(O)c2cccnc2n(-c2ccccc2)c1=O
607	O=C(CN1C(=O)CSc2cccn2-c2ccccc21)N1CCN(c2ccccn2)CC1
883	Cc1ccc(CNc2ccc3nnc(C4CCC4)n3n2)o1
1150	COc1cccc(Cn2c(=O)c3sccc3n(Cc3nc(-c4ccccc4C)no3)c2=O)c1
791	CCC(=O)Nc1ccc(-n2cnc(C(=O)NCc3ccc(C)c(C)c3)c2)nc1
712	Cc1cc(NC(=O)C2CCN(C(=O)c3cc(-c4ccco4)on3)CC2)no1
705	O=C(COc1ccc(F)cc1)Nc1ccc2c(c1)CCC(=O)N2
734	O=C(CN1C(=O)CCC1=O)N1CCC(Oc2nc3ccc(F)cc3s2)CC1
902	Cc1cc2c(c(=O)n(-c3ccccc3)c(=O)n2CC(=O)Nc2ccc(F)c(Cl)c2)n1C
908	COc1ccc(OC)c(NC(=O)C(C)C2CCN(C(=O)Nc3ccc(C)cc3)CC2)c1 (centres undefined)
1000	O=[N+]([O-])c1ccc(-c2csc(N3CCOCC3)n2)cc1
683	Cc1nc(-c2noc(-c3ccncc3)n2)cn1CC(=O)NCc1ccc(Cl)cc1
1200	O=C1/C(=C/c2cc(Br)cc3c2OCOC3)Oc2cc(OC(=O)C3CC3)ccc21
1170	CCc1ccc(-c2noc(CN3C(=O)COc4cc(C)ccc43)n2)cc1
678	COc1ccccc1NC(=O)N1CCC(c2cc(N)on2)CC1
652	CCOc1ccc(NC(=O)CSc2ccc(N3CCCC(C(=O)NC4CC4)C3)nn2)cc1 (centres undefined)
790	CCn1cc(-c2ccc(Cl)cc2)cc1C(=O)NCc1ccccn1
873	CCN(CC)C(=O)N1CC(Oc2cccc(-c3nc(C)no3)c2)C1
737	C[C@@H]1CC2C3CCC4=CC(=O)C=CC4(C)[C@@]3(F)[C@@H](O)CC2(C)[C@@]1(O)C(=O)CO (some centres undefined)

SMILES	RP-LC retention time [s]
NC(=O)Cn1c(Cc2ccccc2)nc2ccccc21	522
CC1=C(N2CC2)C(=O)C(CO)=C(N2CC2)C1=O	585
